Results published in patent publication US20120270928A1, “MICRORNA COMPOUNDS AND METHODS FOR MODULATING MIR-21 ACTIVITY” (REGULUS THERAPEUTICS INC., priority 2011, published 2012).

Key:
[1] = system: ischemia reperfusion injury/nephrectomy (IR/Nx) model; experiment: Ischemia reperfusion injury/nephrectomy (IR/Nx) model: urinary albumin to creatinine ratio; type: in vivo, mouse
Excerpt: An ischemia reperfusion injury/nephrectomy (IR/Nx) model is created in the mouse through temporary unilateral clamping of an artery in one kidney, which leads to tubule damage, inflammation, and fibrosis, followed by removal of the second kidney at a later timepoint. In this model, the acute kidney dysfunction phase is useful to test candidate agents for the treatment of acute kidney injury (i.e. up to about the first 5 days), and the later phases of kidney dysfunction are useful to model chronic fibrosis (i.e. after about the first 5 days).
Unilateral IR was induced for a period of 30 minutes. Treatment groups were as follows: sham IR procedure; IR with PBS administered subcutaneously; IR with mismatched control 25109 administered subcutaneously at a dose of 20 mg/kg; IR with anti-miR-21 compound 25070 administered subcutaneously at a dose of 20 mg/kg; and IR with anti-miR-21 compound 25923 administered subcutaneously at a dose of 20 mg/kg. PBS or anti-miR was administered on days 2, 3, 4, and 8 following IR. On day 8, the healthy kidney was removed by nephrectomy from each animal, and animals were sacrificed on day 9. Just prior to sacrifice, urine was collected by direct bladder puncture.
Urinary albumin to creatinine ratio was measured in the urine from each mouse. […] The geometric mean of the albumin to creatinine ratio in each group of mice was 16 μgAlb/mgCr (nephrectomy-only control), 127 μgAlb/mgCr (IR/Nx, PBS control), 140 μgAlb/mgCr (IR/Nx, 25109 control), 40 μgAlb/mgCr (IR/Nx, 25070), and 31 μgAlb/mgCr (IR/Nx, 25923). Blood urea nitrogen and serum creatinine levels were similar across all IR/Nx mice, and were elevated relative to nephrectomy-only control mice (data not shown).

IR/Nx model mice = experiment: Survival rate of IR/Nx model mice two days after nephrectomy; type: in vivo
Description: The survival rate of IR/Nx model mice two days after nephrectomy was determined across six different experiments to determine if administration of anti-miR-21 compounds increases survival. In the first three experiments, anti-miR-21 compound was administered on days 5, 6, and 7 after ischemia reperfusion injury, and nephrectomy occurred on day 10 or day 11. In the second three experiments, anti-miR-21 compound was administered on days 2, 3, and 4, and nephrecromy occurred on day 7.

[2] = Ex vivo liver homogenate stability assay (HPLC-TOF MS); settings: 5 μM oligonucleotide in liver homogenate (50 mg tissue per ml), 24 hours at 37° C.
[3] = In vivo stability of compound in kidney tissue after administration to mice; settings: 7 days post-injection

## AECSATCSAGTCSTGAUSAAGCSTAE (ACATCAGTCTGATAAGCTA; modified nucleosides, phosphorothioate linkages, chemistry not fully specified) [Compound 25070]
[1]; 20 mg/kg subcutaneously on days 2, 3, 4, and 8
  reduction in urinary albumin to creatinine ratio (significance): statistically significant reductions
[1]; 20 mg/kg subcutaneously on days 2, 3, 4, and 8, urine on day 9
  geometric mean of the urinary albumin to creatinine ratio: 40 μgAlb/mgCr
IR/Nx model mice; Studies 1-3 pooled, Nx day 10/11, dosing days 5, 6, and 7
  Survival rate 2 days after Nx, Summary (day 10/11 Nx): 80% (29/36)
IR/Nx model mice; Studies 4-6 pooled, Nx day 7, dosing days 2, 3, and 4
  Survival rate 2 days after Nx, Summary (day 7 Nx): 69% (25/36)
IR/Nx model mice; Study 1, Nx Day 10, 30 mg/kg on days 5, 6, and 7 after IR
  Survival rate 2 days after Nx: 91.7%
IR/Nx model mice; Study 2, Nx Day 11, 30 mg/kg on days 5, 6, and 7 after IR
  Survival rate 2 days after Nx: 83.3%
IR/Nx model mice; Study 3, Nx Day 10, 20 mg/kg on days 5, 6, and 7 after IR
  Survival rate 2 days after Nx: 66.6%
IR/Nx model mice; Study 4, Nx Day 7, 20 mg/kg on days 2, 3, and 4 after IR
  Survival rate 2 days after Nx: 75%
IR/Nx model mice; Study 5, Nx Day 7, 20 mg/kg on days 2, 3, and 4 after IR
  Survival rate 2 days after Nx: 66.7%
IR/Nx model mice; Study 6, Nx Day 7, 20 mg/kg on days 2, 3, and 4 after IR
  Survival rate 2 days after Nx: 66.7%
IR/Nx model mice; first three experiments, dosing days 5, 6, 7, nephrectomy on day 10 or day 11
  survival rate two days after nephrectomy: 80%
IR/Nx model mice; second three experiments, dosing days 2, 3, 4, nephrectomy on day 7
  survival rate two days after nephrectomy: 69%
[2]
  compound lacking the 3′-terminal nucleoside: about 27%
  compound present as the full-length compound: about 58%
[3]
  compound present in kidney tissue lacking the 3′-terminal nucleoside: about 50%
